Square brackets hold non-standard residues; d marks the D form. Peptide text beside a SMILES is read from it. * marks the point of attachment. ξ: configuration not given here. ξF = NC(Cc1ccccc1)C(=O)O; Cbz = O=C(OCc1ccccc1)*; CHN2 = [N-]=[N+]=C*

The subject of this assay is SARS-CoV-2. Briefly: Determination of antiviral efficacy in high-content imaging assay in Vero E6 cells infected with SARS-CoV-2 (USA-WA1/2020 isolate) at MOI 0.75 after 24 hrs. The note with it: Severe acute respiratory syndrome coronavirus 2, Vero C1008, 24 h. In kind it is functional, organism-based, Chlorocebus sabaeus.
As for `COc1cc2c(cc1N1C[C@@H](C)N[C@@H](C)C1)N(C(=O)c1ccc(-c3ccc(-c4noc(C)n4)cc3C)cc1)CC2`, the response was half-maximal at 1200 nM (EC50).

Regarding `C[C@@H]1CN(c2ncc(C(O)CO)cc2Cl)CCN1c1nc2c(-c3cc(F)c(F)c(F)c3)cc(C(F)(F)F)cc2[nH]1` (stereo partly specified), the EC50 (as a rule, the concentration at which the effect is half-maximal) came to 950 nM.

Regarding `C1=C(c2ccc(CN3CCCCC3)cc2)N2CCN=C2c2ccccc21`, the EC50 is 750 nM.

In turn, `CCC(CC)COC(=O)[C@H](C)N[P@](=O)(OC[C@H]1O[C@@](C#N)(c2ccc3c(N)ncnn23)[C@H](O)[C@@H]1O)Oc1ccccc1` displayed an EC50 of 620 nM.

For the molecule `CCNC/C=C\CNCCCCNCCCCNC/C=C\CNCC`, the EC50 is 250 nM.

With `CC[C@H](NC(=O)[C@H](CS(=O)(=O)CC1CC1)N[C@@H](c1ccc(F)cc1)C(F)(F)F)C(=O)C(=O)NC1CC1`, the EC50 was found to be 300 nM.

In turn, `CN(C)CCn1c(C(=O)N2CCN(c3ccccc3Cl)CC2)c(C(c2ccc(O)cc2)c2ccc(O)cc2)c2ccccc21` came in with a concentration giving a half-maximal response (EC50) of 1200 nM.

`COc1cccc2c(N3CCc4ccccc4C3C)nc(Nc3ccc(F)cc3C)nc12` (stereo unspecified): the response was half-maximal at 950 nM (EC50).

With `CC(C)(O)c1ccc2c(c1)/C(=C/CCN1CC[C@](O)(c3ccc(Cl)cc3)C(C)(C)C1)c1cccnc1CO2`, the EC50 stood at 140 nM.

Molecule `C[C@@H]1CS/C(=N\NC(=O)C(=O)[C@@H](NC(=O)C2CCCCCC2)C2CCOCC2)N1C` registered an EC50 of 500 nM.

`CC(C)CC(NC(=O)OCc1ccccc1)C(=O)NC(C(=O)NCC(=O)C=[N+]=[N-])C(C)C` (stereo not drawn) (Cbz-Leu-Val-Gly-CHN2; configuration not given here) had an EC50 of 190 nM.

As to `CC(C)[C@H](NC(=O)OCc1ccccc1)C(=O)NC(C=O)Cc1ccccc1` (stereo partly drawn) (Cbz-Val-[ξF]-aldehyde), a half-maximal effect (EC50) was put at 220 nM.

Turning to `Cc1cccc(/C=N/Nc2cc(N3CCOCC3)nc(OCCc3ccccn3)n2)c1` [APILIMOD], the EC50 is 23 nM.

With `Fc1ccc(-c2ccc(CN3CCN(c4cccc5ccoc45)CC3)[nH]2)cc1` [ELOPIPRAZOLE], the midpoint of the response, the EC50, lay at 1100 nM.

`COc1ccc2cc1Oc1ccc(cc1)C[C@H]1c3cc(c(OC)cc3CCN1C)Oc1c(OC)c(OC)cc3c1[C@H](C2)N(C)CC3` [FANCHININ]: the concentration for a half-maximal effect (EC50) stood at 1100 nM.

On to `CC(C)(C)NCc1ccc(Nc2ccnc3cc(Cl)ccc23)cc1O` [GSK-369796], for which the midpoint of the response, the EC50, lay at 1200 nM.

The values are drawn from ChEMBL document CHEMBL4303082, “A Large-scale Drug Repositioning Survey for SARS-CoV-2 Antivirals” (2020).
